Results taken from ChEMBL document CHEMBL1201862, “PubChem BioAssay data set” (2004).
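Tested at 5 concentrations; 48 h exposure; 96-well plates; endpoints linearly interpolated, else capped at highest concentration. GI50 marks 50% less growth.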 The source made the active and inactive calls. Rule as the data show it: active = GI50 up to about 1.1 µM and inactive = higher.

Experiments:
Experiment in all cases: inhibition of tumour cell growth, NCI panel, 48 h
786-0 = test system: 786-0
IGROV-1 = test system: IGROV-1
M14 = test system: M14
HOP-92 = test system: HOP-92
SW-620 = test system: SW-620
NCI-H522 = test system: NCI-H522
HCT-116 = test system: HCT-116
DMS-114 = test system: DMS-114
OVCAR-5 = test system: OVCAR-5
OVCAR-4 = test system: OVCAR-4
SK-MEL-5 = test system: SK-MEL-5
U-251 = test system: U-251
SN12C = test system: SN12C
Malme-3M = test system: Malme-3M
EKVX = test system: EKVX
SF-268 = test system: SF-268
HOP-62 = test system: HOP-62
HCC 2998 = test system: HCC 2998
BT-549 = test system: BT-549
Hs-578T = test system: Hs-578T

Measured: GI50

O=c1nc(NC2CCCCO2)ccn1CCO (stereo not drawn)
inactive: 786-0 > 100 µM | IGROV-1 > 100 µM | M14 > 100 µM | HOP-92 > 100 µM | SW-620 > 100 µM | NCI-H522 > 100 µM | HCT-116 > 100 µM | DMS-114 > 100 µM | OVCAR-5 > 100 µM | OVCAR-4 > 100 µM | SK-MEL-5 > 100 µM | U-251 > 100 µM | SN12C > 100 µM | Malme-3M > 100 µM | EKVX > 100 µM | SF-268 > 100 µM | HOP-62 > 100 µM

COC(=O)c1ccccc1N(C(=O)c1ccccc1)c1ccccc1C
inactive: 786-0 50 µM | IGROV-1 76.6 µM | M14 24 µM | SW-620 59.8 µM | NCI-H522 30.7 µM | HCT-116 56.8 µM | DMS-114 38.6 µM | OVCAR-5 > 100 µM | OVCAR-4 44.2 µM | SK-MEL-5 30.8 µM | U-251 48.2 µM | SN12C > 100 µM | Malme-3M 36.3 µM | EKVX 53.2 µM | HCC 2998 60 µM | SF-268 > 100 µM | HOP-62 > 100 µM

CCOC(=O)Nc1ccc(S(=O)(=O)OC)cc1.CCOC(=O)Nc1ccc(S(=O)(=O)OC)cc1.NNC(=O)c1ccncc1
inactive: 786-0 > 50 µM | IGROV-1 > 50 µM | M14 > 50 µM | HOP-92 > 50 µM | SW-620 12.1 µM | HCT-116 14.3 µM | DMS-114 > 50 µM | OVCAR-5 > 50 µM | OVCAR-4 > 50 µM | SK-MEL-5 > 50 µM | U-251 11.1 µM | SN12C > 50 µM | Malme-3M > 50 µM | EKVX > 50 µM | HCC 2998 > 50 µM | SF-268 > 50 µM | HOP-62 > 50 µM

CCn1c(C)nn2c(=O)c3ccccc3nc2c1=O
inactive: 786-0 > 100 µM | IGROV-1 > 100 µM | M14 > 100 µM | HOP-92 59.7 µM | SW-620 > 100 µM | HCT-116 > 100 µM | DMS-114 > 100 µM | OVCAR-5 > 100 µM | OVCAR-4 > 100 µM | SK-MEL-5 > 100 µM | U-251 > 100 µM | Malme-3M > 100 µM | EKVX > 100 µM | HCC 2998 > 100 µM | HOP-62 > 100 µM

O=C(/C=C1\NC(=O)c2ccccc2N1)c1ccncc1
inactive: 786-0 > 100 µM | IGROV-1 > 100 µM | M14 > 100 µM | SW-620 > 100 µM | NCI-H522 > 100 µM | HCT-116 > 100 µM | DMS-114 > 100 µM | OVCAR-5 > 100 µM | OVCAR-4 > 100 µM | SK-MEL-5 > 100 µM | U-251 > 100 µM | SN12C > 100 µM | Malme-3M > 100 µM | EKVX > 100 µM | HCC 2998 > 100 µM | SF-268 > 100 µM | HOP-62 > 100 µM

CC1(C(=O)Nc2ccc3cc4ccccc4cc3c2)CC2(C)CC(C)(C1)C(O)NC2=O (stereo not drawn)
inactive: 786-0 > 100 µM | IGROV-1 > 100 µM | M14 > 100 µM | HOP-92 59.3 µM | SW-620 > 100 µM | HCT-116 > 100 µM | DMS-114 92 µM | OVCAR-5 > 100 µM | OVCAR-4 > 100 µM | SK-MEL-5 > 100 µM | U-251 > 100 µM | SN12C > 100 µM | Malme-3M 57.3 µM | EKVX > 100 µM | HCC 2998 > 100 µM | SF-268 > 100 µM | HOP-62 > 100 µM

COc1ccc(SCc2cc(OC)c(OC)c(OC)c2)cc1OC
inactive: 786-0 > 100 µM | IGROV-1 80.4 µM | M14 64.1 µM | BT-549 30 µM | HOP-92 25.6 µM | SW-620 82.6 µM | NCI-H522 53.6 µM | HCT-116 61.7 µM | Hs-578T 54 µM | OVCAR-5 > 94.6 µM | OVCAR-4 22 µM | SK-MEL-5 15.8 µM | U-251 53.8 µM | SN12C > 100 µM | Malme-3M 55.2 µM | EKVX 43.4 µM | HCC 2998 50.9 µM | SF-268 > 100 µM | HOP-62 > 100 µM

COC1=CC(=O)C[C@@H](C)[C@]12Oc1c(Cl)c(OC)cc(OC)c1C2=O [GRISEOFULVIN]
inactive: 786-0 50.1 µM | IGROV-1 17.4 µM | M14 9.48 µM | BT-549 > 39.5 µM | HOP-92 > 34.3 µM | SW-620 7.62 µM | NCI-H522 8.11 µM | HCT-116 11.8 µM | Hs-578T 11.9 µM | OVCAR-5 > 91.6 µM | OVCAR-4 38.2 µM | SK-MEL-5 7.62 µM | U-251 27.7 µM | SN12C 40.5 µM | Malme-3M 76.4 µM | EKVX > 100 µM | HCC 2998 17.2 µM | SF-268 > 68.9 µM | HOP-62 49.9 µM
